Holding throughout (details): Hepatitis B virus, HepG2, read-out: EC50 ± StD (nM)
The test system of experiment [1] is HBV genotype A2. Kind of experiment: Antiviral effect on HBV genotypes, transiently transfected HepG2 cells. It is filed as cell-based. The source says: (§1) HepG2 cell line was used for HBV genotypes and core variants inhibition assays. HepG2 cell line is maintained in DMEM supplemented with 10% of fetal bovine serum, 1% of glutamine and 1% of penicillin/streptomycin.
(§2) For antiviral effect on HBV A-E genotypes, HepG2 cell line and DNA plasmids expressing HBV genome of different genotypes, from A to E, were used. HepG2 were transiently transfected with plasmid DNA harboring 1.1-mer-overlength genomic sequences of each HBV genotypes A to E isolates cloned into the pcDNA3.1/Zeo(−) vector as described in J Virol. 2010, 84, 3879-88 (https://doi.org/10.1128/JVI.02528-09). Each plasmid contains the 1.1×HBV genome under the control of a CMV promoter. The list of plasmid used is the following: pcDNA3.1-HBV1.1-A2 (HBV genotype A2), pcDNA3.1-HBV1.1—B2 (HBV genotype B2), pcDNA3.1-HBV1.1—C2 (HBV genotype C2), pcDNA3.1-HBV1.1-D (described as p26 in the above reference, HBV genotype D), pcDNA3.1-HBV1.1-E (HBV genotype E). Methods of generating plasmids are well know in the art (as for example in Viruses 2020, 12, 353, doi:10.3390/v12030353; Antiviral Research 144 (2017) 205-215, http://dx.doi.org/10.1016/j.antiviral.2017.06.016) and the selection of a suitable method is not a limitation on the present invention.
(§3) HepG2 cells were seeded in polylysine coated 96 multiwell plates at a density of 2*10^4 cells/well and incubated overnight at 37° C. The following day cells were transfected with the HBV plasmids (100 ng/well) using the Lipofectamine 3000 Reagent (Thermo Fisher Scientific) and following manufacturer instructions. After 5 h transfection mixtures were removed and cells were treated with serially diluted compounds in 0.5% DMSO at 8-point dose-response as previously described. After 96 hours of incubation at 37° C. with compound the supernatants were collected, centrifuged for cell debris clarification and incubated with DNase I amplification grade 1 Unit/50 μl (Sigma) for 1 h at 37° C. to allow plasmid input digestion. Quantification of extracellular HBV DNA with direct qPCR was performed as previously described. To avoid unspecific detection of HBV plasmid and to confirm plasmid digestion, specific primers designed across plasmid backbone and HBV sequence were added as controls (HBV-CNT-gt-F:5′-[…]-3′ (SEQ ID No. 3), HBV-CNT-gt-R:5′-[…]-3′(SEQ ID No. 4)). Antiviral activity data for each genotype are reported as EC50 mean value. Moreover the EC50 shift value is indicated, corresponding to the ratio between the observed EC50 and the EC50 for genotype D, which is used as reference genotype (see RESULTS, Table 2 legend). Excel and Graphpad Prism programs are typically used for data elaboration and EC50 calculation.

In experiment [2] the test system is HBV genotype B2. The experiment is described as above. The class given is cell-based.
Text: as §1, §2, §3

Experiment [3] has as its system HBV genotype C2. Described as above. The class given is cell-based.
Text: as §1, §2, §3

Experiment [4] relates to HBV genotype D. The experiment is described as above. The class given is cell-based.
Text: as §1, §2, §3

Experiment [5] has as its system HBV genotype E. The experiment is described as above. It is filed as cell-based.
Text: as §1, §2, §3

The test system of experiment [6] is HBV core protein variant F110I. Briefly: Antiviral effect against core variants, transfected HepG2 cells. The class given is cell-based, HBV genotype D. How it is done: as §1, §3
(§4) The experimental procedure for antiviral effect against HBV core protein variants was similar to the one previously described for antiviral effect on HBV A-E Genotypes. Different core point mutations (F23Y, F110I, I105T, L37Q, T33N, T33P, T128I, V124G, Y118F) were selected based on their ability to reduce potency of CAMs currently in development (literature data) and introduced in the plasmids containing the HBV genome of genotype D (pcDNA3.1-HBV1.1-D, described above). The following list of plasmids was generated by site-directed mutagenesis of the parent plasmid pcDNA3.1-HBV1.1-D (p26 in J Virol. 2010, 84, 3879-88): pcDNA3.1-HBV1.1-D-CoreF23Y, pcDNA3.1-HBV1.1-D-CoreF110I, pcDNA3.1-HBV1.1-D-Core 1105 T, pcDNA3.1-HBV1.1-D-CoreL37Q, pcDNA3.1-HBV1.1-D-CoreT33N, pcDNA3.1-HBV1.1-D-CoreT33P, pcDNA3.1-HBV1.1-D-CoreT128I, pcDNA3.1-HBV1.1-D-CoreV124G, pcDNA3.1-HBV1.1-D-CoreY118F (point mutations in the nucleotide codon relative to the indicated core aminoacid substitution are the followings: TTC/TAC for F23Y, TTT/ATT for F110I, ATT/ACT for I105T, CTG/CAG for L37Q, ACC/AAC for T33N, ACC/CCC for T33P, ACT/ATT for T128I, GTG/GGG for V124G, TAT/TTT for Y118F). Antiviral activity data for each variant are reported as EC50 mean value and EC50 shift compared to wild type (see RESULTS, Table 4 legend). Excel and Graphpad Prism programs are typically used for data elaboration and EC50 calculation.

Experiment [7] deals with HBV core protein variant F23Y. The experiment is described as above. It is filed as cell-based, HBV genotype D. How it is done:
as §1, §3, §4

For experiment [8], the system named is HBV core protein variant I105T. The description is as above. It is filed as cell-based, HBV genotype D. How it is done:
as §1, §3, §4

The test system of experiment [9] is HBV core protein variant L37Q. The experiment is described as above. The class given is cell-based, HBV genotype D. How it is done: as §1, §3, §4
Experiment [10] concerns HBV core protein variant T128I. Described as above. It is filed as cell-based, HBV genotype D. As to the method: as §1, §3, §4
For experiment [11], the system named is HBV core protein variant T33N. The description is as above. The class given is cell-based, HBV genotype D. How it is done: as §1, §3, §4
Experiment [12] concerns HBV core protein variant T33P. The description is as above. The class given is cell-based, HBV genotype D. How it is done: as §1, §3, §4
The subject of experiment [13] is HBV core protein variant V124G. The description is as above. It is filed as cell-based, HBV genotype D. As to the method:
as §1, §3, §4

Experiment [14] relates to HBV core protein variant Y118F. Described as above. The class given is cell-based, HBV genotype D. As to the method: as §1, §3, §4

Structures are written as SMILES.

As usually defined, the EC50 is the concentration needed to bring the measured effect to its halfway point. Turning to `Cc1cc(NC(=O)c2c3c(cn2C)S(=O)(=O)N[C@H]2CN(C(=O)C(=O)N[C@@H](C)C(F)(F)F)C[C@H]2CO3)ccc1F` [Example E15, (3aR,10aR)—N-(4-fluoro-3-methylphenyl)-7-methyl-2-(2-oxo-2-(((S)-1,1,1-trifluoropropan-2-yl)amino)acetyl)-2,3,3a,4,10,10a-hexahydro-1H,7H-dipyrrolo[3,4-b:3′,4′-f][1,4,5]oxathiazocine-8-carboxamide 5,5-dioxide], the EC50 in experiment [1] stood at 2.14 ± 0.43 nM; in experiment [2], 1.58 ± 0.7 nM; in experiment [3], 0.72 ± 0.55 nM; in experiment [4] it was 0.94 ± 0.49 nM; in [5], 1.79 ± 1.08 nM; in experiment [6] it was 1.12 ± 0.3 nM. The EC50 in experiment [7] came out at 6.33 ± 0.94 nM; in [8], 3.22 ± 1.45 nM; in experiment [9], 8.72 ± 3.76 nM; in experiment [10] it was 8.91 ± 5.85 nM; in experiment [11], 46.9 ± 21.1 nM; in experiment [12] it was 1.68 ± 0.37 nM. Further, the EC50 in experiment [13] turned out to be 6.8 ± 2.08 nM; in [14], 6.37 ± 1.84 nM.

The record behind these values is US12465590B2, “Oxalamido-substituted tricyclic inhibitors of hepatitis b virus” (priority 2019, dated 2025).
